Measured values taken from article PMC4177760, “Cytotoxicity of four Aframomum species (A. arundinaceum, A. alboviolaceum, A. kayserianum and A. polyanthum) towards multi-factorial drug resistant cancer cell lines” (BMC Complementary and Alternative Medicine, 2014).
Where two headings read alike, the source gives them in different places.

How the values were obtained:
[1] = test system: drug-sensitive CCRF-CEM leukemia cells; assay: Resazurin reduction assay, CCRF-CEM; assay type: cell-based, human
Protocol: (§1) The cell lines used the present work, their origins and their treatments were previously reported. They include drug-sensitive CCRF-CEM and multidrug-resistant P-glycoprotein over-expressing CEM/ADR5000 leukemia cells, the MDA-MB-231-pcDNA3 breast cancer cells and its resistant subline MDA-MB-231-BCRP clone 23), the HCT116 (p53^+/+) colon cancer cells and its knockout clones HCT116 (p53^-/-), the U87MG glioblastoma cells and its resistant subline U87MG.ΔEGFR, HepG2 hepatocarcinoma cells and AML12 normal hepatocytes. The CCRF-CEM and CEM/ADR5000 leukemia cells were maintained in RPMI 1640 medium (Invitrogen) supplemented with 10% fetal calf serum in a humidified 5% CO2 atmosphere at 37°C. Sensitive and resistant cells were kindly provided by Dr. Axel Sauerbrey (Department of Pediatrics, University of Jena, Jena, Germany). The generation of the resistant subline was previously described. Breast cancer cells, transduced with control vector (MDA-MB-231-pcDNA3) or with cDNA for the breast cancer resistance protein BCRP (MDA-MB-231-BCRP clone 23), were maintained under standard conditions as described above for CCRF-CEM cells. Human wild-type HCT116 (p53^+/+) colon cancer cells as well as knockout clones HCT116 (p53^-/-) derived by homologous recombination were a generous gift from Dr. B. Vogelstein and H. Hermeking (Howard Hughes Medical Institute, Baltimore, MD). Human glioblastoma multiforme U87MG cells (non-transduced) and U87MG cell line transduced with an expression vector harboring an epidermal growth factor receptor (EGFR) gene with a genomic deletion of exons 2 through 7 (U87MG.ΔEGFR) were kindly provided by Dr. W. K. Cavenee (Ludwig Institute for Cancer Research, San Diego, CA). MDA-MB-231-BCRP, U87MG.ΔEGFR and HCT116 (p53^-/-) were maintained in DMEM medium containing 10% FBS (Invitrogen) and 1% penicillin (100 U/mL)-streptomycin (100 μg/mL) (Invitrogen) and were continuously treated with 800 ng/mL and 400 μg/mL geneticin, respectively. Human HepG2 hepatocellular carcinoma cells and normal AML12 heptocytes were obtained from the American Type Culture Collection (ATCC, USA). The above medium without geneticin was used to maintain MDA-MB-231, U87MG, HCT116 (p53^+/+), HepG2 and AML12 cell lines. The cells were passaged twice weekly. All experiments were performed with cells in the logarithmic growth phase.
(§2) The cytotoxicity of the studied samples was performed by resazurin reduction assay as we previously described. Briefly, adherent cells at 1x10^4 cells were allowed to attach overnight and then treated with different studied samples. […] For suspension cells, aliquots of 2 × 10^4 cells per well were seeded in 96-well-plates in a final volume of 200 μL. […] The tested concentrations ranges were 0.16 μg/mL to 40 μg/mL for crude extracts and isolated compounds and 0.08 μg/mL to 20 μg/mL for doxorubicin. After 72 h incubation and a resazurin (Sigma-Aldrich, Schnelldorf, Germany) staining, fluorescence was measured on an Infinite M2000 Pro™ plate reader (Tecan, Crailsheim, Germany) using an excitation wavelength of 544 nm and an emission wavelength of 590 nm. Each assay was done at least two times, with six replicates each. IC50 values represent the sample’s concentrations required to inhibit 50% of cell proliferation and were calculated from a calibration curve by linear regression using Microsoft Excel.

[2] = test system: HCT116 (p53+/+) colon cancer cells; assay: Resazurin reduction assay, HCT116 p53+/+; assay type: cell-based, human
Protocol: as §1, §2

[3] = test system: HepG2 hepatocarcinoma cells; assay: Resazurin reduction assay, HepG2; assay type: cell-based, human; conditions: HepG2, 72 h
Protocol: as §1, §2

U87MG glioblastoma cells = assay: Resazurin reduction assay, U87MG; assay type: cell-based, human; conditions: 72 h
Protocol: as §1, §2

[4] = test system: multidrug-resistant P-glycoprotein over-expressing CEM/ADR5000 leukemia cells; assay: Resazurin reduction assay, CEM/ADR5000; assay type: cell-based, human; conditions: for IC50: CEM/ADR5000, 72 h; for degree of resistance: IC50 CEM/ADR5000 divided by IC50 CCRF-CEM
Protocol: as §1, §2

[5] = test system: U87MG.ΔEGFR glioblastoma cells; assay: Resazurin reduction assay, U87MG.ΔEGFR; assay type: cell-based, human; conditions: for IC50: U87MG.ΔEGFR, 72 h; for degree of resistance: IC50 U87MG.ΔEGFR divided by IC50 U87MG
Protocol: as §1, §2

[6] = test system: HCT116 (p53-/-) colon cancer cells; assay: Resazurin reduction assay, HCT116 p53-/-; assay type: cell-based, human; conditions: for IC50: HCT116 p53-/-, 72 h; for degree of resistance: IC50 HCT116 p53-/- divided by IC50 HCT116 p53+/+
Protocol: as §1, §2

[7] = test system: MDA-MB-231-BCRP clone 23 breast cancer cells; assay: Resazurin reduction assay, MDA-MB-231-BCRP; assay type: cell-based; conditions: for degree of resistance: IC50 MDA-MB-231-BCRP divided by IC50 MDA-MB-231; for IC50: 72 h
Protocol: as §1, §2

[8] = test system: MDA-MB-231-pcDNA3 breast cancer cells; assay: Resazurin reduction assay, MDA-MB-231; assay type: cell-based; conditions: MDA-MB-231, 72 h
Protocol: as §1, §2

AML12 normal hepatocytes = assay: Resazurin reduction assay, AML12; assay type: cell-based; conditions: 72 h
Protocol: as §1, §2

[9] = test system: nine cancer cell lines, sensitive and MDR phenotypes; assay: Resazurin reduction assay, all tested cancer cell lines; assay type: cell-based; conditions: read-out: IC50 values on all tested cancer cell lines
Protocol: The cell lines used the present work, their origins and their treatments were previously reported. They include drug-sensitive CCRF-CEM and multidrug-resistant P-glycoprotein over-expressing CEM/ADR5000 leukemia cells, the MDA-MB-231-pcDNA3 breast cancer cells and its resistant subline MDA-MB-231-BCRP clone 23), the HCT116 (p53^+/+) colon cancer cells and its knockout clones HCT116 (p53^-/-), the U87MG glioblastoma cells and its resistant subline U87MG.ΔEGFR, HepG2 hepatocarcinoma cells and AML12 normal hepatocytes. The CCRF-CEM and CEM/ADR5000 leukemia cells were maintained in RPMI 1640 medium (Invitrogen) supplemented with 10% fetal calf serum in a humidified 5% CO2 atmosphere at 37°C. Sensitive and resistant cells were kindly provided by Dr. Axel Sauerbrey (Department of Pediatrics, University of Jena, Jena, Germany). The generation of the resistant subline was previously described. […]
The cytotoxicity of the studied samples was performed by resazurin reduction assay as we previously described. […] After 72 h incubation and a resazurin (Sigma-Aldrich, Schnelldorf, Germany) staining, fluorescence was measured on an Infinite M2000 Pro™ plate reader (Tecan, Crailsheim, Germany) using an excitation wavelength of 544 nm and an emission wavelength of 590 nm. […]

[10] = test system: human promyeloleukemia cell line HL-60; set-up: method as in PMID 14505793, PMID 12832847, PMID 16310358; conditions: HL-60, via a transient induction of caspase-3/CPP32 activity; cited from earlier work
[11] = single concentration 40 μg/mL, 72 h, preliminary test
[12] = Homo sapiens, HCT-116, 72 h, read-out: IC50
[13] = Homo sapiens, U-87 MG, read-out: IC50
[14] = Homo sapiens, HCT-116, read-out: IC50
[15] = Homo sapiens, CCRF-CEM, 72 h; read-out: IC50
[16] = MDA-MB-231-BCRP, read-out: IC50

Row | Compound | Growth percentage (growth proliferation) of CCRF-CEM cells [1, 11] | IC50 [2, 12] | IC50 ([3]; Homo sapiens, read-out: IC50) | IC50 (U87MG glioblastoma cells; [13]) | IC50 ([4]; Homo sapiens, read-out: IC50) | degree of resistance [4] | IC50 ([5]; Homo sapiens, read-out: IC50) | IC50 [6, 14] | degree of resistance [7] | IC50 ([8]; Homo sapiens, read-out: IC50) | IC50 (AML12 normal hepatocytes; Mus musculus, read-out: IC50) | IC50 [1, 15] | also measured
1 | 1,4-dihydroxybenzene [Compound 7] | more than 50% | – | – | – | – | – | – | – | – | – | – | – | –
2 | CC1(C)CCC[C@@]2(C)[C@H]1CC[C@@]1(CO1)[C@@H]2C/C=C(/C=O)CC=O [Compound 1, aframodial] | more than 50% | – | – | – | – | – | – | – | – | – | – | – | –
3 | C=C1CCC2C(C)(C)CCCC2(C)C1CC=C(C=O)CC=O (stereo not drawn) [Compound 2, 8(17),12-labdadien-15,16-dial] | more than 50% | – | – | – | – | – | – | – | – | – | – | – | –
4 | CC1(C)CCCC2(C)C1CCC1(CO1)C2CC=C1CCOC1=O (stereo not drawn) [Compound 3, galanolactone] | more than 50% | – | – | – | – | – | – | – | – | – | – | – | –
5 | CC1(C)CCCC2(C)C1CCC1(C=O)C(O)CC(C=O)=CCC21 (stereo not drawn) [Compound 4, galanal A] | 47.78% | > 40 µg/mL | > 40 µg/mL | > 40 µg/mL | > 40 µg/mL | > 2.31 | > 40 µg/mL | > 40 µg/mL | < 0.70 | > 40 µg/mL | > 40 µg/mL | – | IC50 ([1]; Homo sapiens, CCRF-CEM, 72 h, CCRF-CEM, read-out: IC50): 17.3 ± 1.96 µg/mL; IC50 ([7]; MDA-MB-231/BCRP, MDA-MB-231-BCRP, read-out: IC50): 28 ± 2.39 µg/mL
6 | CC1(C)CCCC2(C)C1CCC1(C=O)C(O)CC(C=O)=CCC21 (stereo not drawn) [Compound 5, galanal B] | 49.81% | – | – | – | – | > 2.02 | – | – | – | – | – | – | IC50 ([2]; 72 h): - ((-): >40 μg/mL); IC50 [3]: - ((-): >40 μg/mL); IC50 ([1]; CCRF-CEM, 72 h): 19.81 ± 2.01 µg/mL; IC50 (U87MG glioblastoma cells): - ((-): >40 μg/mL); IC50 [4]: - ((-): >40 μg/mL); IC50 [5]: - ((-): >40 μg/mL); IC50 [6]: - ((-): >40 μg/mL); IC50 ([7]; MDA-MB-231-BCRP): - ((-): >40 μg/mL); IC50 [8]: - ((-): >40 μg/mL); IC50 (AML12 normal hepatocytes): - ((-): >40 μg/mL)
7 | CC1=CC(O)C(C(C)C)CC1O (stereo not drawn) [Compound 6, 1-p-menthene-3,6-diol] | more than 50% | – | – | – | – | – | – | – | – | – | – | – | –
8 | O=C1C[C@@H](c2ccc(O)cc2)Oc2cc(O)cc(O)c21 [Compound 8, naringenin] | 38.49% | 13.7 ± 1.11 µg/mL | 23.5 ± 1.95 µg/mL | 29.8 ± 1.88 µg/mL | 7.86 ± 0.74 µg/mL | 0.64 | 18 ± 1.34 µg/mL | 13.9 ± 0.94 µg/mL | 1.91 | 9.51 ± 1.03 µg/mL | > 40 µg/mL | 12.2 ± 1.87 µg/mL | IC50 [9]: < 40 µg/mL; degree of resistance [5]: 0.60; degree of resistance [6]: 1.02; apoptosis induction [10]: induced apoptosis; IC50 [7, 16]: 18.1 ± 2.01 µg/mL
9 | COc1ccc(-c2oc3cc(OC)cc(O)c3c(=O)c2OC)cc1 [Compound 9, kaempferol-3,7,4’-trimethylether] | 39.58% | > 40 µg/mL | > 40 µg/mL | > 40 µg/mL | 18.2 ± 1.18 µg/mL | 0.99 | > 40 µg/mL | 36.7 ± 2.31 µg/mL | < 0.83 | > 40 µg/mL | > 40 µg/mL | 18.4 ± 2.04 µg/mL | IC50 ([7]; MDA-MB-231/BCRP): 33.1 ± 2.64 µg/mL
10 | COc1cccc2c1C(=O)c1c(O)c3c(c(O)c1C2=O)C[C@@](O)(C(=O)CO)C[C@@H]3O[C@H]1C[C@H](N)[C@H](O)[C@H](C)O1 [Doxorubucin, Doxorubicin, reference compound] | – | 1.43 ± 0.02 µg/mL | 1.41 ± 0.12 µg/mL | 1.06 ± 0.03 µg/mL | > 20 µg/mL | 1772 | 6.11 ± 0.04 µg/mL | 4.06 ± 0.04 µg/mL | 7.11 | 1.1 ± 0.01 µg/mL | > 40 µg/mL | 0.11 ± 0.01 µg/mL | IC50 ([9]; all nine tested cancer cell lines): < 40 µg/mL; degree of resistance [5]: 5.76; degree of resistance [6]: 2.84; IC50 [7, 16]: 7.83 ± 0.01 µg/mL
